Measurements from ChEMBL document CHEMBL1139077, “Dopamine/serotonin receptor ligands. Part 15: Oxygenation of the benz-indolo-azecine LE 300 leads to novel subnanomolar dopamine D1/D5 antagonists” (Bioorg Med Chem Lett, 2007).
Active and inactive are the calls of the source. The rule behind the calls is not given here.

How the values were obtained:
[1] = target: T1, D(2) dopamine receptor (Homo sapiens, UniProt P14416); assay: Displacement of [3H]spiperone from human cloned dopamine D2L receptor expressed in CHO cells; type: cell-based
[2] = target: D(3) dopamine receptor (Homo sapiens, UniProt P35462); assay: Binding affinity to human cloned dopamine D3 receptor expressed in CHO cells; type: cell-based
[3] = target: T2, D(1A) dopamine receptor (Homo sapiens, UniProt P21728); assay: Displacement of [3H]SCH 23390 from human cloned dopamine D1 receptor expressed in HEK 293 cells; type: cell-based, HEK293
[4] = Binding affinity to human cloned dopamine D4.4 receptor expressed in CHO cells; type: cell-based
[5] = target: T3, D(1B) dopamine receptor (Homo sapiens, UniProt P21918); assay: Binding affinity to human cloned dopamine D5 receptor expressed in HEK 293 cells; type: cell-based, HEK293
[6] = target: T2, D(1A) dopamine receptor; assay: Agonist activity at human dopamine D1 receptor assessed as increase in […] calcium concentration by calcium fluorescence assay; type: functional
[7] = target: T1, D(2) dopamine receptor; assay: Activity at human dopamine D2 receptor assessed as quinpirol-induced suppression of calcium signal by calcium fluorescence assay; type: functional
[8] = target: T3, D(1B) dopamine receptor; assay: Agonist activity at human dopamine D5 receptor assessed as increase in […] calcium concentration by calcium fluorescence assay; type: functional
[9] = target: T1, D(2) dopamine receptor; assay: Agonist activity at human dopamine D2 receptor assessed as increase in […] calcium concentration by calcium fluorescence assay; type: functional
[10] = target: T3, D(1B) dopamine receptor; assay: Activity at human dopamine D5 receptor assessed as SKF 38393-induced suppression of calcium signal by calcium fluorescence assay; type: functional

T2 sequence (P21728 whole entry): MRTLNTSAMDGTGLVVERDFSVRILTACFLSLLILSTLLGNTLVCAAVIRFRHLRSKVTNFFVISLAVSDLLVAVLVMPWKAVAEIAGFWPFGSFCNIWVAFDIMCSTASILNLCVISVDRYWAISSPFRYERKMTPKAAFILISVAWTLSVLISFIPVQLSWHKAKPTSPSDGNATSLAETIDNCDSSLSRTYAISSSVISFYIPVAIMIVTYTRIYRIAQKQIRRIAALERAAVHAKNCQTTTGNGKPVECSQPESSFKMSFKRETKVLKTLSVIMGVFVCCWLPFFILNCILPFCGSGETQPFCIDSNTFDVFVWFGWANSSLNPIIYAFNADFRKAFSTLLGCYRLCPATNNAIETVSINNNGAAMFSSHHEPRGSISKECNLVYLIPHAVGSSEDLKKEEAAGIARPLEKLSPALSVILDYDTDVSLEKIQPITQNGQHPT
T1 sequence (P14416 whole entry): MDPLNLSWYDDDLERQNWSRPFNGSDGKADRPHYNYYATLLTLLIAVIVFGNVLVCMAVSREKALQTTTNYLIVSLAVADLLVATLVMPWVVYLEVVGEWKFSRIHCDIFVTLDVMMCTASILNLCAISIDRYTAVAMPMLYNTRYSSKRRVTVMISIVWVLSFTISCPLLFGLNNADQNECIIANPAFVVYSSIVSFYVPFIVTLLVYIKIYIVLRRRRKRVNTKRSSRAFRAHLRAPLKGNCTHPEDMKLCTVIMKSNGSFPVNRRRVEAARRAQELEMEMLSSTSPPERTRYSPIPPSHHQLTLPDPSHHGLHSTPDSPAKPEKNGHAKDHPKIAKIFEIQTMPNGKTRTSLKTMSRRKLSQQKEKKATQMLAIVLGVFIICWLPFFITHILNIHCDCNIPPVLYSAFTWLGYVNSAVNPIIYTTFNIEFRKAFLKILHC
T3 sequence (P21918 whole entry): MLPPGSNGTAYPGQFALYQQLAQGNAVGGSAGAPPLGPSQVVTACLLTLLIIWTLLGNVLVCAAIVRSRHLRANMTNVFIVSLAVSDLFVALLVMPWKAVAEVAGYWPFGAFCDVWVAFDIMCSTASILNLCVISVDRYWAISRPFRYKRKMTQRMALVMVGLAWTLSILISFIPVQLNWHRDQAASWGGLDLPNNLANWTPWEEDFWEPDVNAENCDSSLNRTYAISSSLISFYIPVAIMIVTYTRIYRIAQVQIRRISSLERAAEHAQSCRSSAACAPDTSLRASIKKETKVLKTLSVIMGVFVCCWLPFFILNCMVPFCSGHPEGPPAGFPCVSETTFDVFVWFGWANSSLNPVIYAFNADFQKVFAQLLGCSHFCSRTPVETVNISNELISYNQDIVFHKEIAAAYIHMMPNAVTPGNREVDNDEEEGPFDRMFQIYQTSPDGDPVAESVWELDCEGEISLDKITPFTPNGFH
D(3) dopamine receptor, sequence (P35462 whole entry): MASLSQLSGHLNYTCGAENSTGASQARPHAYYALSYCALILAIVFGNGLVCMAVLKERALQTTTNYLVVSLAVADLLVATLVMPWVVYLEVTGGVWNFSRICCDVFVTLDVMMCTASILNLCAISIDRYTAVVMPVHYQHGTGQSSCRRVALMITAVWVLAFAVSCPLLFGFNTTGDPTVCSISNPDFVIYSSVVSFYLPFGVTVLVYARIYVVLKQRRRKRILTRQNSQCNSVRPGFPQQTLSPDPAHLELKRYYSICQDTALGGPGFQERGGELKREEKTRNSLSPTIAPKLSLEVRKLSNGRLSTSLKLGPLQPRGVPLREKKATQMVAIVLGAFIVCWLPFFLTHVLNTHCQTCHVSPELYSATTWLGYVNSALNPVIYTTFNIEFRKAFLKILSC

Row | Structure (SMILES) | Ki [1] [nM] | Ki [2] [nM] | Ki [3] [nM] | Ki [5] [nM] | Activity [6] | Activity [7] | Activity [8] | Activity [9] | Activity [10] | Ki [4] [nM]
1 | COc1ccc2c(c1)CCN(C)CCc1ccccc1C2 |  |  |  | 38.3 |  |  |  |  |  | 43.4
2 | COc1ccc2[nH]c3c(c2c1)CCN(C)CCc1ccccc1C3 | 11.9 | 475 | 0.82 | 3.6 |  |  |  |  |  | 266
3 | CN1CCc2ccccc2Cc2ccc(O)cc2CC1 |  |  |  |  | inactive |  | inactive |  |  | 
4 | COc1ccc2c(c1)c1c(n2C)Cc2ccccc2CCN(C)CC1 | 1.7 | 3.78 | 2 | 0.23 |  |  |  |  |  | 21.6

Now from value to compound, other results behind:

Row | Ki [1] [nM] | Ki [2] [nM] | Ki [3] [nM] | Ki [5] [nM] | Activity [6] | Activity [7] | Activity [8] | Activity [9] | Activity [10] | Structure (SMILES) | Ki [4] [nM]
5 | 38.4 | 944 | 0.56 | 0.39 |  |  |  |  |  | CN1CCc2ccccc2Cc2[nH]c3ccc(O)cc3c2CC1 | 398
6 |  | 40.3 |  |  | inactive | Active | inactive | inactive | Active | CN1CCc2ccccc2Cc2[nH]c3ccccc3c2CC1 | 109
7 | 22.8 | 1140 | 19 | 31.5 |  |  |  |  |  | COc1ccc2c(c1)CCN(C)CCc1c([nH]c3ccccc13)C2 | 92.6
8 | 74.7 | 2070 | 3.7 | 5.4 |  |  |  |  |  | CN1CCc2cc(O)ccc2Cc2[nH]c3ccccc3c2CC1 | 1360
